From PMC10527105, “Chirality Matters: Fine-Tuning of Novel Monoamine Reuptake Inhibitors Selectivity through Manipulation of Stereochemistry” (Biomolecules, 2023) come the findings set out here.

The subject of data set [1] is extracellular DA levels in the hippocampus. Briefly: In vivo micro-dialysis in freely moving mice. The arrangement: species or system C57BL76J mice. Conditions: for treatment effect on extracellular DA levels in hippocampus: 1 mg/kg i.p., experimental day 1; for time course of extracellular DA levels after the peak / increase of extracellular DA levels in hippocampus: 10 mg/kg i.p.; for time course of extracellular DA levels after the peak: experimental day 2; for increase of extracellular DA levels in hippocampus: experimental day 2, within 20 min of administration, relative to baseline. As to the method:
Male, adult C57BL76J mice (Janvier-Labs, Saint Berthevin, France) were group-housed in individually ventilated cages under standard laboratory conditions (temperature 22 ± 2 °C, humidity 45–65%, with a 12:12 h light-dark cycle lights on at 07:00 h). Animals had free access to food and water. All experimental procedures were approved by the Austrian Animal Experimentation Ethical Committee (Bundesministerium für Wissenschaft, Forschung und Wirtschaft, Kommission für Tierversuchsangelegenheiten) in compliance with international laws and policies.
Under isoflurane anesthesia (at 5% and 1.5% for induction and maintenance, respectively), a commercially available guide cannula (MAB 4.15 with OD 0.48 mm and ID 0.35 mm, Microbiotech, Stockholm, Sweden) was implanted above the right hippocampus (AP = −2.1 mm, ML = +1.5 mm, DV = −0.7 mm from Bregma) and closed with a dummy probe as described previously. After surgery, animals received buprenorphine (0.5 mg/kg s.c.) and meloxicam (1.0 mg/kg p.o. via the drinking water) for analgesic care. They were allowed to recover for 5–7 days while being single-housed and habituated to the experimenter and experimental procedures. On the day before the experiment, the dummy was replaced by a microdialysis probe (MAB 4.15.1 PES, Microbiotech, Sweden) that extended the guide cannula by 1 mm, thus reaching into the dorsal hippocampus. Microdialysis probes were connected to a microinfusion pump (CMA, Stockholm, Sweden) and a swivel-tether system via polyethylene tubing. Probes were constantly superfused with artificial cerebrospinal fluid (aCSF); consisting of in mM: 140 NaCl, 3.0 KCl, 1.2 CaCl2, 1.0 MgCl2, 1.0 Na2HPO4, pH 7.4, at a flow rate of 0.5 µL/min overnight and 1.0 µL/min during sample collection, respectively. Microdialysis fractions were collected every 20 min in pre-cooled microtubes containing antioxidative protection solution (in mM: 0.27 Na2EDTA, 100 acetic acid, 0.0125 ascorbic acid), vortexed, and immediately frozen at −80 °C until further analysis. At any time, the dead volumes generated by the inlet and outlet systems were considered to cause a temporal delay in fraction collection.
On experimental day 1, vehicle (30% Kolliphor EL) or one of the two enantiomers -7h and 8h (1 mg/kg) was administered i.p. after six baseline samples, and another 12 samples were collected. On experimental day 2, the collection of dialysates was resumed. Again, 6 baseline samples and 12 samples after the administration of either vehicle (30% Kolliphor EL) or 7h/8h (10 mg/kg) were collected. At the end of the experiment, microdialysis probes were superfused with high (100 mM) depolarizing concentrations of potassium (K^+) containing aCSF in order to elicit local […] for testing the functionality of the microdialysis system. Thereafter, animals were euthanized with an overdose of thiopental, decapitated, and their brains removed. The localization of the microdialysis probe was verified by observing cresyl violet-stained coronal sections (40 µm) under a light microscope. Three animals were removed from the analysis due to misplaced probes.
Quantification of dopamine in microdialysates. The quantification of dopamine in microdialysates was performed using a high-performance liquid chromatography (HPLC) system for electrochemical detection, as previously described. The HPLC system consisted of a Shimadzu (Kyoto, Japan) system controller (CBM-20A), a degassing unit (DGU-20A3R), and a micro HPLC pump (LC-20AD) operating at a flow rate of 55 µL/min. Microdialysis samples (5 µL) were injected via a SIL-20ACHT autosampler (Shimadzu, Japan) and separated on a C18 reversed-phase column (Inertsil ODS-3; 50 mm × 1.0 mm ID; 3 µm particle sizes, GL Sciences Inc., Tokyo, Japan) placed in a DECADE II electrochemical detector equipped with an amperometric flow cell (Antec, Zoeterwoude, The Netherlands). […]

A further data set relates to rat cortical neurons. Briefly: Neurite outgrowth assay (Cyprotex). It counts as cell-based. The note with it: for IC50: Rattus norvegicus, Cortical neurone, 72 h; for window between neurite outgrowth effect concentration and active concentration: effect at 100 µM compared to the active concentration; for effect on valid neuron count, mean neurite average length and neurite total length per neuron: only at 100 µM (top concentration tested); for effect on neurite outgrowth in relation to effect on cell viability: rat cortical neurons; for cell-toxic effects: up to a concentration of 50 µM. As to the method:
Neurite outgrowth assay. […] were carried out by Cyprotex (an Evotec Company, Toulouse, France), Study No. CYP2052-R1. For an in-depth description, please refer to the report in the supporting information files. Cryo-preserved rat cortical neurons (QBM Cell Science, R-Cx-500) were quickly thawed and slowly diluted with neurobasal medium supplemented with L-glutamine (Invitrogen, Cat. No. 25030-081), penicillin-streptomycin (Invitrogen, Cat. No. 15140-122), and B27 (NB/B27 medium, Invitrogen, Cat. No. 17504-044). After a gentle centrifugation step, the neurons were resuspended in NB/B27 medium at a density of 4.0 × 10^6 cells/mL. One hour prior to treatment, the neurons were plated in 384-well plates (Corning 354663) pre-coated with a laminin solution (Sigma L2020 1 mg/mL) at a density of 10,000 cells per well. After treatment with test articles and control compounds, the neurons were maintained in a humidified environment at 37 °C with 5% CO2 for 72 h. At the end of the treatment period, the neurons were fixed for 1 h with a 3.7% formaldehyde solution (Acros Organics, 41073-0010). The neurons were washed with phosphate buffered saline (PBS) (SH30264.02) and permeabilized for 10 min with a 0.5% solution of Triton X-100 (Millipore Sigma, X100). After another wash step, the neurons were stained for one hour with Hoechst 33342 (ThermoFisher Scientific, H3570) and the anti-beta III tubulin antibody, Alexa Fluor® 488 conjugate (Millipore Sigma AB15708A4), diluted in a blocking buffer solution (Thermo Scientific, 37525). Upon completion of the staining step, the neurons were washed again, and the plates were sealed in preparation for the imaging process. The neurons were evaluated for neurite outgrowth and cell health using the high-content imaging platform, ArrayScan VTi (Thermo Scientific ArrayScan VTi), with an optimized neuronal profiling bio-application.
This assay assessed cell health and neurite outgrowth utilizing a neuronal profiling bio-application applied to images obtained on an ArrayScan VTi. Valid neuron count, mean neurite average length, and neurite total length per neuron were determined and reported. Raw data were normalized to the vehicle control and reported as a normalized% response. Dose response graphs were generated with GraphPad Prism using a sigmoidal dose-response (variable slope) algorithm.

Where [2] appears, read: read-out: Mean Neurite Avg. Length IC50, rat cortical neurons, 72 h.
Setting [3] is: read-out: Neurite Total Length per Neuron IC50, rat cortical neurons, 72 h.
[4] abbreviates: read-out: Valid Neuron Count IC50, rat cortical neurons, 72 h.

Where two headings read alike, the source gives them in different places.

The IC50 is the concentration that gives 50% inhibition.

For `[O-][S@@+](Cc1cccs1)[C@@H](c1ccccc1)c1cccc(Br)c1` [Compound 7h, (S,S)-2-((((3-bromophenyl)(phenyl)methyl)sulfinyl)methyl)thiophene], in data set [1], the “treatment effect on extracellular DA levels in hippocampus” value is on record as “no treatment effect”, the “time course of extracellular DA levels after the peak” value is “remained elevated throughout a 2 h time period” and the “increase of extracellular DA levels in hippocampus” value was “approximately 35%”. In addition, the IC50 with rat cortical neurons (setting [2]) was determined as 65.8 µM. Besides, the IC50 in the data set with rat cortical neurons (setting [3]) worked out at 59.8 µM. Also, the IC50 in the data set with rat cortical neurons (setting [4]) was 92.2 µM. Moreover, in the data set with rat cortical neurons, the “window between neurite outgrowth effect concentration and active concentration” value is on record as “more than 100 fold”; the “effect on valid neuron count, mean neurite average length and neurite total length per neuron” value is “significant decreases”; the “effect on neurite outgrowth in relation to effect on cell viability” value was “not independent of their effect on cell viability”; the cell-toxic effects entry is “absence of cell-toxic effects”.
As to `[O-][S@+](Cc1cccs1)[C@H](c1ccccc1)c1cccc(Br)c1` [Compound 8h, (R,R)-2-((((3-bromophenyl)(phenyl)methyl)sulfinyl)methyl)thiophene], in data set [1], the “treatment effect on extracellular DA levels in hippocampus” value is given as “no treatment effect”, the “time course of extracellular DA levels after the peak” value was “constantly declined from the peak values” and the “increase of extracellular DA levels in hippocampus” value is reported as “approximately 35%”. The IC50 in the data set with rat cortical neurons (setting [2]) was 75.2 µM. Moreover, in the data set on rat cortical neurons (setting [3]), the IC50 is 72.2 µM. In the data set with rat cortical neurons (setting [4]), the IC50 was 94.6 µM. Moreover, in the data set on rat cortical neurons, the “window between neurite outgrowth effect concentration and active concentration” value is recorded as “more than 100 fold”; the “effect on valid neuron count, mean neurite average length and neurite total length per neuron” value is listed as “significant decreases”; the “effect on neurite outgrowth in relation to effect on cell viability” value was “not independent of their effect on cell viability”; the cell-toxic effects result was “absence of cell-toxic effects”.
